{
  "source": "paper PMC8044911",
  "about": "“Research on the Interaction Mechanism Between α Mino-Phosphonate Derivative Q-R and Harpin-Binding Protein 1 in Tobacco (Nicotiana tabacum) Plants” (Frontiers in Microbiology, 2021)",
  "key": {"[1]": {"molecular_target": "T1, HrBP1 (harpin-binding protein 1) (Nicotiana tabacum, UniProt Q5QJB2)", "T1 construct": "full-length ORF (831 bp, 276 aa) in pET28a NdeI/XhoI, E. coli BL21(DE3), HisTrap purified, tag removal not described; about 30 kDa on SDS-PAGE, oligomer about 180 kDa by SEC", "assay": "isothermal titration calorimetry"}, "[2]": {"molecular_target": "T1, HrBP1 (harpin-binding protein 1)", "assay": "isothermal titration calorimetry", "settings": "pH 7.5, 25 °C, 20 mM Tris-HCl, 100 mM NaCl"}, "[3]": {"molecular_target": "the molecule itself", "assay": "SEC; Superdex 200 10/300 GL, 4°C, 20 mM Tris-HCl, 100 mM NaCl, pH 7.5; mass standards 17-440 kDa; run without and after adding the small molecule Q-R (larger oligomer with Q-R)"}},
  "data": [
    {"molecule": "Cc1cccc2sc(N[C@@H](c3cccs3)P(=O)(Oc3ccccc3)Oc3ccccc3)nc12", "note": "[Q-R, (R)-diphenyl-1-(4-methylbenzothiazole-2-amino)-1-(thiphene-2-yl)-methylphosphonate]", "values": [
      {"measurement": "Kd", "setting": "[1]", "value": 1190, "unit": "nM"}
    ]},
    {"molecule": "CCOP(=O)(OCC)C(Nc1nc2c(C)cccc2s1)c1ccccc1F", "note": "(stereo not drawn) [dufulin]", "values": [
      {"measurement": "isothermal titration calorimetry", "setting": "[2]", "value": "weak binding occurred between the dufulin and HrBP1 protein"}
    ]},
    {"molecule": "harpin-binding protein 1 (HrBP1) from Nicotiana tabacum (natural protein, UniProt Q5QJB2 1-276, looked up, full-length gene of 831 bp, 276 amino acids, cloned between NdeI and XhoI of pET28a; tryptic peptides matched UniProt Q5QJB2; Removal of the tag is not described; also called HrBP1 recombinant protein; source: E. coli BL21(DE3), pET28a-HrBP1, purified (HisTrap column, desalting column, ultrafiltration)) MASLLQYSTLPLSNNHCSSSLPSLTCHLSKRSNRNTQKLLEKKKYHIKKSLICQSGIDELAFIELPGTKEAKAELIGSLKLKLLSAVSGLNRGLAASEEDLKKADAAAKELESCAGAVDLSADLDKLQGRWKLIYSSAFSGRTLGGSRPGPPTGRLLPITLGQVFQRIDVLSKDFDNIVELELGAPWPLPPAELTATLAHKFELIGSSTIKITFEKTTVKTTGILSQLPPFEVPRIPDQLRPPSNTGSGEFEVTYIDSDTRVTRGDRGELRVFVIS", "values": [
      {"measurement": "binding result", "setting": "[3]", "value": "binds"}
    ]}
  ]
}
